Results on 8 compounds are retold here after ChEMBL document CHEMBL5244231, “Total synthesis, chemical modification and structure-activity relationship of bufadienolides” (Eur J Med Chem, 2020).

The subject of experiment [1] is LNCaP. The experiment can be described thus: Antiproliferative activity against human LNCaP cells assessed as cell growth inhibition incubated for 48 hrs by MTT assay. In kind it is functional, cell-based.
Experiment [2] has as its target Sodium/potassium-transporting ATPase. The experiment is described as follows: Inhibition of NA+/K+ ATPase (unknown origin) activity. The format is protein-complex assay, Homo sapiens.
Experiment [3] deals with PC-3. The experiment is described as follows: Antiproliferative activity against human PC-3 cells assessed as cell growth inhibition incubated for 48 hrs by MTT assay. The format is functional, cell-based. The note with it: PC-3, 48 h.
The target of the next experiment is T1, Androgen receptor (Homo sapiens, UniProt P10275).
T1 sequence (P10275 whole entry): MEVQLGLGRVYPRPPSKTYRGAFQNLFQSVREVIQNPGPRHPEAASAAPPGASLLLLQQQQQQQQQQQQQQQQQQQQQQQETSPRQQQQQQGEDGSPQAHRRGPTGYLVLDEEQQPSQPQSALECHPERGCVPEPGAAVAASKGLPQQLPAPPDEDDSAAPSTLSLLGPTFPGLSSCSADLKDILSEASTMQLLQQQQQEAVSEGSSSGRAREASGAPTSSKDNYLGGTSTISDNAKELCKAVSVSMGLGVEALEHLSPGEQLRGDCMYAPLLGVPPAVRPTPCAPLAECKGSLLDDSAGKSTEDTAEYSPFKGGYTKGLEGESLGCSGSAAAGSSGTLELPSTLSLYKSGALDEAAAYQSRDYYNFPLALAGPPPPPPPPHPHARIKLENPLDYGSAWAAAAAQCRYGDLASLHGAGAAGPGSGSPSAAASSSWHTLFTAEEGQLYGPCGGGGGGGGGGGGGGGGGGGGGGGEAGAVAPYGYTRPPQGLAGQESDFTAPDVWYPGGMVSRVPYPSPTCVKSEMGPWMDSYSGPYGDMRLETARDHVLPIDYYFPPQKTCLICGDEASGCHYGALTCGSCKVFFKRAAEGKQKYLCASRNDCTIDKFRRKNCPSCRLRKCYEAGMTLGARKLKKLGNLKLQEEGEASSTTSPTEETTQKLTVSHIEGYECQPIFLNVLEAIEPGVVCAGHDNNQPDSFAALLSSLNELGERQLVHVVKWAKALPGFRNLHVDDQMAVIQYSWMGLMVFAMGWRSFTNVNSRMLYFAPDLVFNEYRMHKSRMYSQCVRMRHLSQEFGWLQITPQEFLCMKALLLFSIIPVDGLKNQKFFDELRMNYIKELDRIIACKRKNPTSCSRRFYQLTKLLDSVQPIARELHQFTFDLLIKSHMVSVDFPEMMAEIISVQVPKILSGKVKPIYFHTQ
The experiment can be described thus: Binding affinity to AR (unknown origin) incubated for 4 hrs by fluorescence polarization assay. A general note: Fluorescence polarisation rises when a labelled molecule tumbles more slowly, as on binding a larger partner.

For another experiment, the system named is MCF7. The experiment can be described thus: Antiproliferative activity against human MCF7 cells assessed as cell growth inhibition by MTT assay. The format is functional, cell-based. (In general: Tetrazolium dyes change colour on reduction, which living cells bring about.)
Experiment [4] has as its system HeLa. The experiment can be described thus: Antiproliferative activity against human HeLa cells assessed as cell growth inhibition by MTT assay. The format is functional, cell-based.
A further experiment has as its system AGS. The experiment is described as follows: Antiproliferative activity against human AGS cells assessed as cell growth inhibition by MTT assay. In kind it is functional, cell-based.
Experiment [5] has as its system MV4-11. The experiment can be described thus: Antiproliferative activity against human MV4-11 cells assessed as cell growth inhibition by MTT assay. The format is functional, cell-based.
The next experiment deals with Daudi. The experiment is described as follows: Antiproliferative activity against human Daudi cells assessed as cell growth inhibition by MTT assay. The format is functional, cell-based.
The test system of experiment [6] is MV4-11. The experiment is described as follows: Antitumor activity in human MV4-11 cells xenografted in mouse assessed as tumor growth inhibition at 2 mg/kg, iv administered every other day for 21 days relative to control. In kind it is functional. The note with it: MV4-11, 504 h, time 21 day. (In general: Xenograft models place foreign cells or tissue in a host animal.)

A further experiment deals with HT-1080. The experiment can be described thus: Antiproliferative activity against human HT-1080 cells assessed as cell growth inhibition by MTT assay. The format is functional, cell-based.
Another experiment has as its system Jurkat. The experiment can be described thus: Antiproliferative activity against human Jurkat cells assessed as cell growth inhibition by MTT assay. In kind it is functional, cell-based.
In experiment [7] the test system is PC-3. The experiment is described as follows: Antiproliferative activity against human PC-3 cells assessed as cell growth inhibition by MTT assay. The format is functional, cell-based.
The test system of experiment [8] is MV4-11. The experiment is described as follows: Antitumor activity in human MV4-11 cells xenografted in mouse assessed as tumor growth inhibition at 4 mg/kg, IG administered every other day for 21 days relative to control. The format is functional. The following applies: MV4-11, po, 504 h, time 21 day.
For the next experiment, the system named is HepG2. The experiment is described as follows: Antiproliferative activity against human HepG2 cells assessed as cell growth inhibition by MTT assay. The format is functional, cell-based.
A further experiment has as its system NCI-H2228. The experiment is described as follows: Antiproliferative activity against human NCI-H2228 cells assessed as cell growth inhibition by MTT assay. In kind it is functional, cell-based.
In a further experiment the test system is DU-145. The experiment is described as follows: Antiproliferative activity against human DU-145 cells assessed as cell growth inhibition. In kind it is functional, cell-based.
The subject of experiment [9] is LNCaP. The experiment is described as follows: Antiproliferative activity against human LNCaP cells assessed as cell growth inhibition. The format is functional, cell-based.
Experiment [10] concerns PC-3. The experiment can be described thus: Antiproliferative activity against human PC-3 cells assessed as cell growth inhibition. The format is functional, cell-based.
The target of experiment [11] is Sodium/potassium-transporting ATPase. The experiment is described as follows: Inhibition of NA+/K+ ATPase (unknown origin) activity assessed as inhibition constant. In kind it is protein-complex assay, Homo sapiens.
The subject of another experiment is A549. The experiment is described as follows: Antiproliferative activity against human A549 cells assessed as cell growth inhibition incubated for 72 hrs by MTT assay. In kind it is functional, cell-based. The note with it: A549, 72 h.
Experiment [12] relates to HeLa. The experiment is described as follows: Antiproliferative activity against human HeLa cells assessed as cell growth inhibition incubated for 72 hrs by MTT assay. The format is functional, cell-based.

A value given as a limit tells only on which side of the number the result lay.

Take `C[C@]12CC[C@H](O)CC1CCC1=C3CC[C@H](c4ccc(=O)oc4)[C@@]3(C)CCC12` (some centres undefined): the IC50 (commonly the concentration at which inhibition is half-maximal) in the experiment on LNCaP [1] is 6.8 µM; in [2] it was 5.6 µM; in the experiment with PC-3 [3] it was 16.4 µM; on Androgen receptor, > 50 µM.

Turning to `C[C@]12CC[C@H](O)C[C@H]1CC[C@H]1C3=CC[C@H](c4ccc(=S)oc4)[C@@]3(C)CC[C@@H]12`, the IC50 in experiment [2] was determined as 35.8 µM.

Consider `C[C@]12CC[C@H](OC(=O)NC3CCNCC3)C[C@H]1CC[C@@H]1[C@@H]2CC[C@]2(C)[C@@H](c3ccc(=O)oc3)CC[C@]12O`, for which the IC50 with MCF7, in the experiment on HeLa [4], with AGS, in the experiment with MV4-11 [5], in the experiment on Daudi and in the experiment with HT-1080 was 0.3 nM each time. For the same compound, the IC50 in the experiment with Jurkat, in the experiment with PC-3 [7], in the experiment with HepG2 and with NCI-H2228 was 0.3 nM each time. Further, in the experiment with MV4-11 [6], the inhibition in vivo (usually the change of the read-out against control, counted positive when it falls) at 2 mg/kg came out at 100%. In the experiment on MV4-11 [8], the inhibition in vivo at 4 mg/kg was 100%.

Regarding `C[C@]12CC[C@H](O)CC1CCC1C3=CC[C@H](c4ccc(=O)oc4)[C@@]3(C)CCC12` (some centres undefined), the IC50 at Androgen receptor is > 50 µM.

As to `C[C@]12CC[C@H](OC(=O)N3CCNCC3)C[C@H]1CC[C@@H]1[C@@H]2CC[C@]2(C)[C@@H](c3ccc(=O)oc3)CC[C@]12O`, in the experiment with HeLa [4], the IC50 is 0.77 nM.

As to `CN(C)C(=O)/C=C/C1=CO[C@]23CCC1[C@@]2(C)CC[C@H]1[C@H]3CC[C@@H]2C[C@@H](O)CC[C@@]21C`, the IC50 in the experiment on DU-145, with LNCaP [9] and in the experiment with PC-3 [10] was 10 µM in each case. Moreover, the Ki (as a rule, a measure of affinity in units of concentration, obtained from inhibition or displacement) in [11] amounted to 70 µM.

Consider `C[C@]12CC[C@H](O)C[C@H]1CC[C@@H]1[C@@H]2CC[C@]2(C)[C@@H](c3ccc(=O)[nH]c3)CC[C@]12O`, for which the IC50 in the experiment with DU-145, in the experiment with LNCaP [9] and with PC-3 [10] was 10 µM throughout. Moreover, the Ki in [11] turned out to be 70 µM.

Regarding `C[C@]12CC[C@H](OC(=O)C3CCNCC3)C[C@H]1CC[C@@H]1[C@@H]2CC[C@]2(C)[C@@H](c3ccc(=O)oc3)CC[C@]12O`, the results for the IC50 with A549 and with HeLa [12] were 0.34 nM and 0.76 nM, respectively.
